molecular target: HIV-1 fusion (gp160 induced cell-cell fusion; HeLa P4 cell line expressing CCR5 and CD4 / CHO-Tat10 cell line) (Homo sapiens, UniProt P51681); experiment: gp160 induced cell-cell fusion assay; type: cell-based; conditions: HeLa P4 / CHO-Tat10 cells, read-out: IC50
Text: Biol., 60, 147-52 (1996); and/or by using the intracellular calcium mobilisation assays as described by the same authors, and/or inhibiting cell fusion following procedures disclosed in Bradley et al., J Biomol Screen 9, 516-24 (2004).
The gp160 induced cell-cell fusion assay uses a HeLa P4 cell line and a CHO-Tat10 cell line.
The HeLa P4 cell line expresses CCR5 and CD4 and has been transfected with HIV-1 LTR-β-Galactosidase. The media for this cell line is Dulbecco modified eagle's medium (D-MEM) (without L-glutamine) containing 10% foetal calf serum (FCS), 2 mM L-glutamine, penicillin/streptomycin (Pen/Strep; 100 U/mL penicillin+[…] streptomycin), and 1 μg/ml puromycin.
The CHO cell line is a Tat (transcriptional trans activator)-expressing clone from a CHO JRR17.1 cell line that has been transfected with pTat puro plasmid. The media for this cell line is rich medium for mammalian cell culture originally developed at Roswell Park Memorial Institute RPMI1640 (without L-glutamine) containing 10% FCS, 2 mM L-glutamine, 0.5 mg/ml Hygromycin B and 12 µg/ml puromycin. The CHO JRR17.1 line expresses gp160 (JRFL) and is a clone that has been selected for its ability to fuse with a CCR5/CD4 expressing cell line.
Upon cell fusion, Tat present in the CHO cell is able to transactivate the HIV-1 long terminal repeat (LTR) present in the HeLa cell leading to the expression of the β-Galactosidase enzyme. This expression is then measured using a Fluor Ace™ β-Galactosidase reporter assay kit (Bio-Rad cat no. 170-3150). This kit is a quantitative fluorescent assay that determines the level of expression of β-galactosidase using 4-methylumbelliferyl-galactopyranoside (MUG) as substrate. β-Galactosidase hydrolyses the fluorogenic substrate resulting in release of the fluorescent molecule 4-methylumbelliferone (4MU). Fluorescence of 4-methylumbelliferone is then measured on a fluorometer using an excitation wavelength of 360 nm and emission wavelength of 460 nm.
Compounds that inhibit fusion will give rise to a reduced signal and, following solubilisation in an appropriate solvent and dilution in culture medium, a dose-response curve for each compound can be used to calculate IC50 values.

Chain of HIV-1 fusion (gp160 induced cell-cell fusion; HeLa P4 cell line expressing CCR5 and CD4 / CHO-Tat10 cell line) (P51681 whole entry, the tested form may be a part): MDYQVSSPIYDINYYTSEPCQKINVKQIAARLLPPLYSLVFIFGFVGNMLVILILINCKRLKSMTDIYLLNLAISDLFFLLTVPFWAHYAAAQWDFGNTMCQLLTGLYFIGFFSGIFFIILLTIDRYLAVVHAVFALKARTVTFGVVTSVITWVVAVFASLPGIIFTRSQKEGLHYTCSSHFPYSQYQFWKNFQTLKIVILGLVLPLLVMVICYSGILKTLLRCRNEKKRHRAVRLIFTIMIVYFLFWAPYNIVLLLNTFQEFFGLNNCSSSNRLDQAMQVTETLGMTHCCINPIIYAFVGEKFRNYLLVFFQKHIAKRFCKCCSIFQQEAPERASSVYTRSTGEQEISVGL

Compound	IC50 [nM]
COC(=O)N1CCc2nc(C)n(C3CCN(C(C)CC(NC(=O)C4CCC(F)(F)CC4)c4ccccc4)CC3)c2C1 (mixture of isomers) [Example 6]	1
COC(=O)N1CCc2nc(C)n(C3CCN(C(C)CC(NC(=O)CC4CC4)c4ccccc4)CC3)c2C1 (mixture of isomers) [Example 7]	0.9
COC(=O)N1CCc2nc(C)n(C3CCN(C(C)CC(NC(=O)C4CCS(=O)(=O)CC4)c4ccccc4)CC3)c2C1 (mixture of isomers) [Example 8]	6
COC(=O)N1CCc2nc(C)n(C3CCN(C(C)CC(NC(=O)C4CCC4)c4ccccc4)CC3)c2C1 (mixture of isomers) [Example 10]	0.3
COC(=O)N1CCc2nc(C)n(C3CCN(C(C)CC(NC(=O)C(C)C)c4ccccc4)CC3)c2C1 (mixture of isomers) [Example 11]	0.6
COC(=O)N1CCc2nc(C)n(C3CCN(C(C)CC(NC(=O)C4CC4)c4ccccc4)CC3)c2C1 (mixture of isomers) [Example 12]	0.6
COC(=O)N1CCc2nc(C)n(C3CCN(C(C)CC(NC(=O)OC(C)C)c4ccccc4)CC3)c2C1 (mixture of isomers) [Example 14]	17.2
COC(=O)N1CCc2c(nc(C)n2C2CCN(C(C)CC(NC(C)=O)c3cccc(F)c3)CC2)C1 (mixture of isomers) [Example 76]	5.5
COC(=O)N1CCc2c(nc(C)n2C2CCN(C(C)CC(NC(=O)C(C)C)c3cccc(F)c3)CC2)C1 (mixture of isomers) [Example 77]	0.6
COC(=O)N1CCc2c(nc(C)n2C2CCN(C(C)CC(NC(=O)C3CC3)c3cccc(F)c3)CC2)C1 (mixture of isomers) [Example 78]	1.8
CC(CC(NC(=O)C1CCC(F)(F)CC1)c1ccccc1)N1CCC(n2ccnc2)CC1 (mixture of isomers) [Example 127]	4.7
Cc1nc(C2CCN(C(C)CC(NC(=O)C3CCC(F)(F)CC3)c3ccccc3)CC2)no1 (mixture of isomers) [Example 128]	26
CCc1noc(C2CCN(C(C)CC(NC(=O)C3CCC(F)(F)CC3)c3ccccc3)CC2)n1 (mixture of isomers) [Example 129]	8.6
CC(C)Cc1nnc(C2CCN(C(C)CC(NC(=O)C3CCC(F)(F)CC3)c3ccccc3)CC2)o1 (mixture of isomers) [Example 130]	5.9
CC(C)c1nc(C2CCN(C(C)CC(NC(=O)C3CCC(F)(F)CC3)c3ccccc3)CC2)no1 (mixture of isomers) [Example 131]	20.2
COC(=O)N1CCc2nc(C)n(C3CCN(C(C)C[C@H](NC(=O)OC(C)(C)C)c4ccccc4)CC3)c2C1 (single isomer, unassigned) [Example 2]	14
COC(=O)N1CCc2nc(C)n(C3CCN(C(C)C[C@H](NC(=O)OC(C)(C)C)c4ccccc4)CC3)c2C1 (single isomer, unassigned) [Example 3]	434
COC(=O)N[C@@H](CC(C)N1CCC(n2c(C)nc3c2CN(C(=O)OC)CC3)CC1)c1ccccc1 (single isomer, unassigned) [Example 13A]	37.1
COC(=O)N[C@@H](CC(C)N1CCC(n2c(C)nc3c2CN(C(=O)OC)CC3)CC1)c1ccccc1 (single isomer, unassigned) [Example 13B]	600
Cc1nc2c(n1C1CCN(C(C)C[C@H](NC(=O)C3CCC3)c3ccccc3)CC1)CN(C(=O)C(C)C)CC2 (single isomer, unassigned) [Example 24]	0.2
Cc1nc2c(n1C1CCN(C(C)C[C@H](NC(=O)CC(C)C)c3ccccc3)CC1)CN(C(=O)C(C)C)CC2 (single isomer, unassigned) [Example 28]	79.2
Cc1nc2c(n1C1CCN(C(C)C[C@H](NC(=O)C(C)C)c3ccccc3)CC1)CN(C(=O)C(C)C)CC2 (single isomer, unassigned) [Example 29]	29.9
Cc1nc2c(n1C1CCN(C(C)C[C@H](NC(=O)C3CCC3)c3ccccc3)CC1)CN(C(=O)C(C)C)CC2 (single isomer, unassigned) [Example 30]	11
CC(=O)N[C@@H](CC(C)N1CCC(n2c(C)nc3c2CN(C(=O)C(C)C)CC3)CC1)c1ccccc1 (single isomer, unassigned) [Example 31]	191

Compound	IC50 [nM]
CCCC(=O)N[C@@H](CC(C)N1CCC(n2c(C)nc3c2CN(C(C)=O)CC3)CC1)c1cccc(F)c1 (single isomer, unassigned) [Example 47]	0.7
CC(=O)N1CCc2nc(C)n(C3CCN(C(C)C[C@H](NC(=O)CC(C)C)c4cccc(F)c4)CC3)c2C1 (single isomer, unassigned) [Example 50]	0.4
CC(=O)N1CCc2nc(C)n(C3CCN(C(C)C[C@H](NC(=O)C4CCC(F)(F)CC4)c4cccc(F)c4)CC3)c2C1 (single isomer, unassigned) [Example 51]	0.3
COC(=O)N1CCc2c(nc(C)n2C2CCN(C(C)C[C@H](NC(C)=O)c3ccccc3)CC2)C1 (single isomer, unassigned) [Example 72]	2.4
COC(=O)N1CCc2c(nc(C)n2C2CCN(C(C)C[C@H](NC(C)=O)c3ccccc3)CC2)C1 (single isomer, unassigned) [Example 73]	9.1
CC(=O)N1CCc2c(nc(C)n2C2CCN(C(C)C[C@H](NC(=O)C(C)C)c3cccc(F)c3)CC2)C1 (single isomer, unassigned) [Example 93]	12.9
CCOC(=O)N1CCc2c(nc(C)n2C2CCN(C(C)C[C@H](NC(=O)C(C)C)c3cccc(F)c3)CC2)C1 (single isomer, unassigned) [Example 95]	5.5
CCOC(=O)N1CCc2c(nc(C)n2C2CCN(C(C)C[C@H](NC(=O)C3CC3)c3cccc(F)c3)CC2)C1 (single isomer, unassigned) [Example 97]	10
CCOC(=O)N1CCc2c(nc(C)n2C2CCN(C(C)C[C@H](NC(=O)CC)c3cccc(F)c3)CC2)C1 (single isomer, unassigned) [Example 98]	19.1
CC(=O)N1CCc2c(nc(C)n2C2CCN(C(C)C[C@H](NC(=O)C3CC3)c3cccc(F)c3)CC2)C1 (single isomer, unassigned) [Example 101]	18.8
CCC(=O)N[C@@H](CC(C)N1CCC(n2c(C)nc3c2CCN(C(C)=O)C3)CC1)c1cccc(F)c1 (single isomer, unassigned) [Example 102]	25.9
Cc1noc(C2CCN(C(C)C[C@H](NC(=O)OC(C)(C)C)c3ccccc3)CC2)n1 (single isomer, unassigned) [Example 106A]	362
Cc1noc(C2CCN(C(C)C[C@H](NC(=O)C3CCC(F)(F)CC3)c3ccccc3)CC2)n1 (single isomer, unassigned) [Example 109]	4.6
Cc1noc(C2CCN(C(C)C[C@H](NC(=O)C3CCC(F)(F)CC3)c3ccccc3)CC2)n1 (single isomer, unassigned) [Example 110]	353
Cc1cc(C(C)C)n(C2CCN(C(C)C[C@H](NC(=O)C3CCC(F)(F)CC3)c3ccccc3)CC2)n1 (single isomer, unassigned) [Example 116]	50.5
Cc1cc(C(C)C)n(C2CCN(C(C)C[C@H](NC(=O)C3CCC(F)(F)CC3)c3ccccc3)CC2)n1 (single isomer, unassigned) [Example 117]	1170
CC(C)c1nnnn1C1CCN(C(C)C[C@H](NC(=O)C2CCC(F)(F)CC2)c2ccccc2)CC1 (single isomer, unassigned) [Example 121]	0.5
CC(C[C@H](NC(=O)C1CCC(F)(F)CC1)c1ccccc1)N1CCC(c2nnnn2C(C)C)CC1 (single isomer, unassigned) [Example 125]	2.2
CC(C[C@H](NC(=O)C1CCC(F)(F)CC1)c1ccccc1)N1CCC(c2nnnn2C(C)C)CC1 (single isomer, unassigned) [Example 126]	21.8
COC(=O)N1CCc2nc(C)n(C3CCN(C(C)C[C@H](NC(=O)C4CCC4(F)F)c4ccccc4)CC3)c2C1 (some centres unmarked) [Example 5]	0.7
Cc1nc2c(n1C1CCN(C(C)C[C@H](NC(=O)C3(C)CC3)c3ccccc3)CC1)CN(C(=O)C(C)C)CC2 (some centres unmarked) [Example 22]	0.5
Cc1nc2c(n1C1CCN(C(C)C[C@H](NC(=O)C3CC(F)(F)C3)c3ccccc3)CC1)CN(C(=O)C(C)C)CC2 (stereo partly drawn) [Example 25, 3,3-Difluoro-N-{(1S)-3-[4-(5-isobutyryl-2-methyl-4,5,6,7-tetrahydro-3H-imidazo[4,5-c]pyridin-3-yl)piperidin-1-yl]-1-phenylbutyl}cyclobutanecarboxamide]	0.4
Cc1nc2c(n1C1CCN(C(C)C[C@H](NC(=O)C3CCC3(F)F)c3ccccc3)CC1)CN(C(=O)C(C)C)CC2 (some centres unmarked) [Example 26]	38.5

From US20090209578A1, “CHEMICAL COMPOUNDS” (PFIZER INC, priority 2005, published 2009)
